Measured values as given in article PMC6178619, “Arylvinylpiperazine Amides, a New Class of Potent Inhibitors Targeting QcrB of Mycobacterium tuberculosis” (mBio, 2018).

Columns and labels:
Format in all cases: cell-based, Mycobacterium tuberculosis
[1] = tested on: H37Rv Δcyd KO with a QcrB(A317V) mutation
[2] = tested on: AX-resistant mutants of M. tuberculosis H37Rv
[3] = tested on: LPZS-resistant strain of M. tuberculosis H37Rv (QcrB L176P)
[4] = tested on: AX-resistant mutants of M. tuberculosis H37Rv (QcrB S182P, M342V, M342I)
[5] = tested on: Q203-resistant strain of M. tuberculosis H37Rv (QcrB T313A)

SMILES	OCR change from basal on compound addition [1]	Intracellular ATP level [2]	Cross-resistance [3]	Increase in MIC compared to parental strain H37Rv [4] [fold]	Cross-resistance [5]
CCc1nc2ccc(Cl)cn2c1C(=O)NCc1ccc(N2CCC(c3ccc(OC(F)(F)F)cc3)CC2)cc1 [Compound Q203, reference compound]	unaffected	depleted	–	–	–
O=C(/C=C/c1cccs1)N1CCN(Cc2ccc3c(c2)OCO3)CC1 [AX-35, (E)-1-(4-(Benzo[d][1,3]dioxol-5-ylmethyl)piperazin-1-yl)-3-(thiophen-2-yl)prop-2-en-1-one]	decreases	essentially unaffected	cross-resistant	50	cross-resistant
O=C(/C=C/c1ccsc1)N1CCN(Cc2ccc3c(c2)OCO3)CC1 [AX-36, (E)-1-(4-(Benzo[d][1,3]dioxol-5-ylmethyl)piperazin-1-yl)-3-(thiophen-3-yl)prop-2-en-1-one]	–	essentially unaffected	cross-resistant	50	cross-resistant
COc1nc2ccc(Br)cc2cc1[C@@H](c1ccccc1)[C@@](O)(CCN(C)C)c1cccc2ccccc12 [BDQ, bedaquiline, reference compound]	–	depleted	–	–	–
